Laboratory results from PubChem BioAssay AID2008 (University of Pittsburgh Molecular Library Screening Center, 2009).
pEC50: −log10 of the molar value. Active and inactive are the calls of the source. The rule behind the calls is not given here.

System: Leishmania major promastigote growth inhibition
Assay: antileishmanial activity against L. major promastigotes – EC50, dose response (AID 2008)

N=C(N)c1ccc(OCCCCCOc2ccc(C(=N)N)cc2)cc1
pEC50: 7.35

O=S(=O)(CCSc1nc2ccccc2s1)c1nc2ccccc2s1
pEC50: 6.15

COc1ccc(/C=C/c2cc[n+](C(=O)Cc3ccccc3)cc2)cc1
pEC50: 7.30

O=C(c1ccccc1)c1c2c(cc3sc4ccccc4[n+]13)-c1cccc3cccc-2c13
pEC50: 6.30

COC(=O)[C@@H]1[C@@H](C(=O)OC)C2(c3ccccc3-c3ccccc32)N(c2ccc(Cl)cc2)N1C#N
EC50: > 5000 nM (inactive)

CCCCS(=O)(=O)/C=C\C=C/S(=O)(=O)CCCC
pEC50: 5.82

CCC(C)(c1nnnn1-c1c(C)cccc1C)N(N=O)c1ccccc1Cl (centres undefined)
pEC50: 6.49

O=C(O)CCC(=O)Nc1ccc(N2CCCCCC2)cc1
pEC50: 5.76

COc1ccccc1-n1cnc2c(c1=O)c1nc3ccccc3nc1n2-c1ccc(C)c(C)c1
pEC50: 7.09

O=C(NC1CCCC1)C(c1ccc(F)cc1)N(Cc1ccc(Cl)cc1)C(=O)CCl (centres undefined)
pEC50: 5.76

COc1ccc(C(=O)C(CN2CCOCC2)c2ccccc2)cc1F (centres undefined)
pEC50: 5.69

c1ccc(CNc2nc(-c3cccs3)nc3ccccc23)cc1
pEC50: 5.67

COc1ccc(C2=NCC(CSc3nnc(-c4ccc5c(c4)OCO5)o3)S2)cc1 (centres undefined)
pEC50: 6.73

CCC(/C=C1\Sc2ccc(OC)cc2N1CCO)=C\c1sc2ccc(OC)cc2[n+]1CCO
pEC50: 6.31

COc1ccc2cc3[n+](cc2c1OC)CCc1cc2c(cc1-3)OCO2
pEC50: 6.43

c1ccc(-c2cc(-c3nnc4sc(-c5ccccn5)nn34)[nH]n2)cc1
pEC50: 5.39

CCCc1n[nH]c2c1/C(=N/O)CC(c1ccccc1)C2 (centres undefined)
pEC50: 5.82

COC(=O)c1ccc(COc2ccc(C3C4=C(CCCC4=O)Nc4onc(C)c43)cc2)cc1 (centres undefined)
pEC50: 5.81

Clc1ccccc1C(c1ccccc1)(c1ccccc1)n1ccnc1
pEC50: 6.84

Cc1ccccc1-n1ncc2c([N+](=O)[O-])cc([N+](=O)[O-])cc21
pEC50: 7.22

Cc1ccc2nc(Cl)c3nnnn3c2c1
pEC50: 6.12

CN(C)C(=S)SSC(=S)N(C)C
pEC50: 7.01

NCC12CC3CC(C1)CC(c1ccc(Cl)cc1)(C3)C2
pEC50: 6.45

O=C1C(=O)c2c(C(=O)c3ccccc3)coc2-c2ccccc21
pEC50: 5.90

CN(C)c1cc(N/N=C/c2ccc(Cl)cc2)nc(N(C)C)n1
pEC50: 6.30

Cc1nc([N+](=O)[O-])nn1C12CC3CC(CC(Cl)(C3)C1)C2
pEC50: 6.07

CC(C)(C)c1ccc(-n2nc(C#N)c(Cl)cc2=O)cc1
pEC50: 6.12

Cn1c(=O)c2nc(-c3ccccc3)oc2c2ccccc21
pEC50: 5.73

O=C(Cn1cnc([N+](=O)[O-])c1)Nc1cc(Oc2ccc(Cl)cc2Cl)cc([N+](=O)[O-])c1
pEC50: 5.82

N#Cc1cc(Oc2ccc3ccccc3c2)c(-n2nnc3ccccc32)cc1C#N
EC50: > 5000 nM (inactive)

COC(=O)c1ccc(-c2ccc(CNCC(O)c3ccccc3)o2)cc1 (centres undefined)
pEC50: 6.99

O=C(/C=C/c1ccccc1)CC(O)(c1ccccc1)C(F)(F)F (centres undefined)
pEC50: 5.91

Cc1cc(C)nc(/N=c2/ssnc2Cl)c1
pEC50: 6.45

COc1ccc2c3c(cccc13)NN=C2C
pEC50: 6.59

COc1ccc(S(=O)(=O)Nc2ccc(O)c3ccccc23)cc1
pEC50: 6.57

CCOCCN1CCN(c2nnc3n2-c2ccc(Cl)cc2C(c2ccccc2Cl)=NC3)CC1
pEC50: 5.93

O=C(NCC(c1cccnc1)N1CCN(c2ccc(F)cc2)CC1)Oc1ccccc1 (centres undefined)
pEC50: 6.96

COc1ccc(NC(=O)/C(Cl)=C(/Cl)S(=O)Cc2ccccc2Cl)cn1 (centres undefined)
pEC50: 6.62

CNc1ccccc1C(C)(C)c1cc(-c2cccc(Br)c2)no1
pEC50: 5.56

Cn1nc(-c2ccc(Cl)cc2)nc2c(=O)n(C)c(=O)nc1-2
EC50: > 5000 nM (inactive)

Cc1ccc2nc3cc([N+](=O)[O-])cc([N+](=O)[O-])c3cc2c1
pEC50: 6.54

N#CC(c1cccc(Cl)c1)c1ccc2c(C(F)(F)F)cc(C(F)(F)F)nc2n1 (centres undefined)
pEC50: 5.93

O=c1c(Cl)nc2cc(Cl)ccc2n1CCNc1ncc(C(F)(F)F)cc1Cl
pEC50: 6.29

CCCCCCCCC[n+]1cccc2c3ccccc3ccc21
pEC50: 8.61

Cn1cc(CN2CCC(CO)CC2)c(-c2ccc(Oc3ccccc3)cc2)n1
pEC50: 6.79

CCOC(=O)C(=Cc1cc(=O)c(OC)co1)C(=O)OCC
pEC50: 6.78

CCc1ccc(NSc2ccccc2[N+](=O)[O-])cc1
pEC50: 6.13

CC1(C)Cc2ccccc2-c2nnc(-c3ccc4ccccc4n3)n21
pEC50: 5.99

O=[N+]([O-])c1cc([N+](=O)[O-])c2n[nH]c(-c3ccccc3)c2c1
pEC50: 6.40

COC(=O)CNc1nc(-c2ccccc2F)nc2ccccc12
pEC50: 6.13

COc1cc(-c2c(C#N)c(N)nc(SCc3ccncc3)c2C#N)cc(OC)c1OC
pEC50: 5.99

CCCc1nc2c(=O)n(C)c(=O)nc-2n(C)n1
pEC50: 6.67

O=C(c1cccnc1)N(c1cc2sc(=O)oc2c2ccccc12)S(=O)(=O)c1ccccc1
pEC50: 6.72

COC(=O)C1CN(C#N)N(c2ccc(Cl)cc2)C12c1ccccc1-c1ccccc12 (centres undefined)
pEC50: 7.14

Cc1cc(C(=O)CCl)c(C)n1Cc1ccco1
pEC50: 6.11

CCCCCCCCCCCCCCCC[n+]1ccc(/C=N/O)cc1
pEC50: 8.03

O=[N+]([O-])c1ccc(-c2nc(-c3cccs3)c(-c3cccs3)[nH]2)cc1
pEC50: 5.71

CCOC(=O)c1c2c(n(C)c1C)C(=O)C(=O)c1ccc(Br)cc1-2
pEC50: 7.07

CC(C)(C)c1ccc(C(=O)C2CCCN(C3CCC3)C2)cc1 (centres undefined)
pEC50: 7.97
